# Experimental data published in the kinase profiling compilation of Christmann-Franck et al. (2016).
# Values joined by “and” are separate entries in the source; they are usually repeats but may differ in a detail not shown here. Equal entries are not always repeated.
# Columns and labels:
# Test in all cases: radiometric filter-binding kinase assay, Kinase HotSpot
# Settings in all cases: compound 0.5 µM; ATP 10 µM
# [1] = target: ABL2 (human) (UniProt P42684)
# [2] = target: ACVR1 (human) (UniProt Q04771)
# [3] = target: ADRBK1 (human) (UniProt P25098)
# [4] = target: AKT3 (human) (UniProt Q9Y243)
# [5] = target: CAMK1 (human) (UniProt Q14012)
# [6] = target: CAMK1D (human) (UniProt Q8IU85)
# [7] = target: CAMK2B (human) (UniProt Q13554)
# [8] = target: CAMKK2 (human) (UniProt Q96RR4)
# [9] = target: CDK1 CCNA2 (human) (UniProt P06493+P20248)
# [10] = target: CDK2 CCNE1 (human) (UniProt P24941+P24864)
# [11] = target: CDK4 CCND1 (human) (UniProt P24385+P11802)
# [12] = target: CDK4 CCND3 (human) (UniProt P30281+P11802)
# [13] = target: CDK9 CCNT1 (human) (UniProt P50750+O60563)
# [14] = target: CLK2 (human) (UniProt P49760)
# [15] = target: CSNK1G3 (human) (UniProt Q9Y6M4)
# [16] = target: EGFR (human) (UniProt P00533)
# [17] = target: EPHA7 (human) (UniProt Q15375)
# [18] = target: GRK6 (human) (UniProt P43250)
# [19] = target: HIPK4 (human) (UniProt Q8NE63)
# [20] = target: IKBKE (human) (UniProt Q14164)
# [21] = target: LIMK1 (human) (UniProt P53667)
# [22] = target: MAP3K14 (human) (UniProt Q99558)
# [23] = target: MAP4K5 (human) (UniProt Q9Y4K4)
# [24] = target: MARK1 (human) (UniProt Q9P0L2)
# [25] = target: MET (human) (UniProt P08581)
# [26] = target: MLTK (human) (UniProt Q9NYL2)
# [27] = target: MST1R (human) (UniProt Q04912)
# [28] = target: NEK4 (human) (UniProt P51957)
# [29] = target: NEK7 (human) (UniProt Q8TDX7)
# [30] = target: NTRK3 (human) (UniProt Q16288)
# [31] = target: PHKG1 (human) (UniProt Q16816)
# [32] = target: PRKCB2 (human) (UniProt P05771)
# [33] = target: PRKCE (human) (UniProt Q02156)
# [34] = target: PRKD1 (human) (UniProt Q15139)
# [35] = target: PRKG1 (human) (UniProt Q13976)
# [36] = target: PTK2 (human) (UniProt Q05397)
# [37] = target: STK10 (human) (UniProt O94804)
# [38] = target: STK11 (human) (UniProt Q15831)
# [39] = target: STK39 (human) (UniProt Q9UEW8)
# [40] = target: TGFBR1 (human) (UniProt P36897)
# [41] = target: TSSK2 (human) (UniProt Q96PF2)
# [42] = target: GRK7 (human) (UniProt Q8WTQ7)
# Chain of STK10 (human) (O94804 whole entry, looked up): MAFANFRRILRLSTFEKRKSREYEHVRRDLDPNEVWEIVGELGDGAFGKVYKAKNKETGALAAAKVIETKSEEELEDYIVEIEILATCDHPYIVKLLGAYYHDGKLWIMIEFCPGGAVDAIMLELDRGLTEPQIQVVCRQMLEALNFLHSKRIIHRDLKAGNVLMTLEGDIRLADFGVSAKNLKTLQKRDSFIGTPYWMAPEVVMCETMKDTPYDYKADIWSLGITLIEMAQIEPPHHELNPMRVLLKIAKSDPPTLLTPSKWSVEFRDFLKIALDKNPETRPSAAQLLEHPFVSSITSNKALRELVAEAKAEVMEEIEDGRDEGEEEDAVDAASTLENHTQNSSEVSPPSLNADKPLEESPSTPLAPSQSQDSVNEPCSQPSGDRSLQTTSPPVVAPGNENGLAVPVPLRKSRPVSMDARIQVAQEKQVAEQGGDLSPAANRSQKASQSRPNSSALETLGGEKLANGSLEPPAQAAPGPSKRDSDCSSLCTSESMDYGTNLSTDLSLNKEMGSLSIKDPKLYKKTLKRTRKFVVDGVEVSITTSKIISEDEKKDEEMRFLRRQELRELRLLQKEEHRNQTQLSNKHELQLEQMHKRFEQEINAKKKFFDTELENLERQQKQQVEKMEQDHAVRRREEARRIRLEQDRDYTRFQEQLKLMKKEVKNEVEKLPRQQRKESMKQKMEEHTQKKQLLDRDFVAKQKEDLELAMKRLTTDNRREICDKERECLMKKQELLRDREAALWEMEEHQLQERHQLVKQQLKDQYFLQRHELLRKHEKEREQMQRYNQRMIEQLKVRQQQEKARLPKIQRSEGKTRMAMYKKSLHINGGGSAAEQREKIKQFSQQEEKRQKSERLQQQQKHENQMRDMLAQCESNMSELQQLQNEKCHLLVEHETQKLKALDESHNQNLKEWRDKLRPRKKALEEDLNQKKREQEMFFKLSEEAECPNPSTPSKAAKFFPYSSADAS
# Chain of CAMKK2 (human) (Q96RR4 whole entry, looked up): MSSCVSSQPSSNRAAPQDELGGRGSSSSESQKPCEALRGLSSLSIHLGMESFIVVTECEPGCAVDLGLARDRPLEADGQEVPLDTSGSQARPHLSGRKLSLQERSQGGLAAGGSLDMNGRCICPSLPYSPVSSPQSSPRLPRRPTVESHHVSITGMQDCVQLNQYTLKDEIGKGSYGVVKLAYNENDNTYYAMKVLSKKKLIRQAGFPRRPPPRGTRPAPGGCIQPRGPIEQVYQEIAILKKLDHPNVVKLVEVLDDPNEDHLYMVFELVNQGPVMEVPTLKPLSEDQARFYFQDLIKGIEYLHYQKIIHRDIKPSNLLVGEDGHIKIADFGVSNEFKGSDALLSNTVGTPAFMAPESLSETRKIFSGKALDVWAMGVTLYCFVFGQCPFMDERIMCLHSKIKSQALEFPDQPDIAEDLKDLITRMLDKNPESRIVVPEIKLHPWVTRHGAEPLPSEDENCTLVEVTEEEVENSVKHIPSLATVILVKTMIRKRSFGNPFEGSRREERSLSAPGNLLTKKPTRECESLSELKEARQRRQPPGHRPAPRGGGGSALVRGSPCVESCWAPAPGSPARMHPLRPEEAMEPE
# Chain of ADRBK1 (human) (P25098 whole entry, looked up): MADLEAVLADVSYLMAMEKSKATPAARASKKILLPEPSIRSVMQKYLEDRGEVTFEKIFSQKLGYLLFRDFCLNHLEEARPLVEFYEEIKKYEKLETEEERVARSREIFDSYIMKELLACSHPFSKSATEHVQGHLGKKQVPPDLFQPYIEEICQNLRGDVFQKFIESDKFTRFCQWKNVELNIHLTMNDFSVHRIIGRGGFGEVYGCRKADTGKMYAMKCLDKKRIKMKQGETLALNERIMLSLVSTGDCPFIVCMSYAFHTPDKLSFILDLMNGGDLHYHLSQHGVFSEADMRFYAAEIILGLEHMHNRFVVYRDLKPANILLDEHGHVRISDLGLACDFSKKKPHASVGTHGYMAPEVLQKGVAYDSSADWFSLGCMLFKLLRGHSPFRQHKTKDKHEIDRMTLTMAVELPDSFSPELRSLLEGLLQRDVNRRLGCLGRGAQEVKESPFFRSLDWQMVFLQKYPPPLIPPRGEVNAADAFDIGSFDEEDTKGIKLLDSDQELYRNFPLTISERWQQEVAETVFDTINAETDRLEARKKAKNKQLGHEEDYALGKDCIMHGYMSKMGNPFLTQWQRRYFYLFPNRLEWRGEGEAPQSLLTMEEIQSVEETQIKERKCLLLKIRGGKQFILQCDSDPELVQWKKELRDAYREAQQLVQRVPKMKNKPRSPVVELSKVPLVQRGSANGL
# Chain of NTRK3 (human) (Q16288 whole entry, looked up): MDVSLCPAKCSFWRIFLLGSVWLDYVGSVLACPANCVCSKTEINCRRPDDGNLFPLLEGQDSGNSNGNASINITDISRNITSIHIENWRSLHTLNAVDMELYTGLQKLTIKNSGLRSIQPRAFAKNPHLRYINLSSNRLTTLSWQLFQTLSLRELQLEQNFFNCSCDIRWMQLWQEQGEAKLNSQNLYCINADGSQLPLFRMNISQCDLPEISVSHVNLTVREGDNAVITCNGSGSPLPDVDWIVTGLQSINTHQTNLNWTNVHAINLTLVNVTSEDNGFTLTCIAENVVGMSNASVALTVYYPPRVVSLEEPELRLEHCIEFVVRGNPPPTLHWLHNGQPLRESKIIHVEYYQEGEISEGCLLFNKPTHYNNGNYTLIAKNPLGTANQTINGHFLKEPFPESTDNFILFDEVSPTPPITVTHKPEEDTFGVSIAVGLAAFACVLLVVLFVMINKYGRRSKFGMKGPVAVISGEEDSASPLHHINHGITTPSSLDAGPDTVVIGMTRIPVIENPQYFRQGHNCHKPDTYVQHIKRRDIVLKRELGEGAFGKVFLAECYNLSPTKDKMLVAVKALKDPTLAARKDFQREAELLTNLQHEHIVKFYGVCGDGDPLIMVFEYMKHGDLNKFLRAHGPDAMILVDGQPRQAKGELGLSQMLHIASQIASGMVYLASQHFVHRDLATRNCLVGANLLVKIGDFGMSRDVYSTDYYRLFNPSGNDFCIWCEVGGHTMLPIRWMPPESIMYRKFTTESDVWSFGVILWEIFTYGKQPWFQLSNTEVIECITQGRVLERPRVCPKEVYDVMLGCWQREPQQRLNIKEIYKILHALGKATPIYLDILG
# Chain of EPHA7 (human) (Q15375 whole entry, looked up): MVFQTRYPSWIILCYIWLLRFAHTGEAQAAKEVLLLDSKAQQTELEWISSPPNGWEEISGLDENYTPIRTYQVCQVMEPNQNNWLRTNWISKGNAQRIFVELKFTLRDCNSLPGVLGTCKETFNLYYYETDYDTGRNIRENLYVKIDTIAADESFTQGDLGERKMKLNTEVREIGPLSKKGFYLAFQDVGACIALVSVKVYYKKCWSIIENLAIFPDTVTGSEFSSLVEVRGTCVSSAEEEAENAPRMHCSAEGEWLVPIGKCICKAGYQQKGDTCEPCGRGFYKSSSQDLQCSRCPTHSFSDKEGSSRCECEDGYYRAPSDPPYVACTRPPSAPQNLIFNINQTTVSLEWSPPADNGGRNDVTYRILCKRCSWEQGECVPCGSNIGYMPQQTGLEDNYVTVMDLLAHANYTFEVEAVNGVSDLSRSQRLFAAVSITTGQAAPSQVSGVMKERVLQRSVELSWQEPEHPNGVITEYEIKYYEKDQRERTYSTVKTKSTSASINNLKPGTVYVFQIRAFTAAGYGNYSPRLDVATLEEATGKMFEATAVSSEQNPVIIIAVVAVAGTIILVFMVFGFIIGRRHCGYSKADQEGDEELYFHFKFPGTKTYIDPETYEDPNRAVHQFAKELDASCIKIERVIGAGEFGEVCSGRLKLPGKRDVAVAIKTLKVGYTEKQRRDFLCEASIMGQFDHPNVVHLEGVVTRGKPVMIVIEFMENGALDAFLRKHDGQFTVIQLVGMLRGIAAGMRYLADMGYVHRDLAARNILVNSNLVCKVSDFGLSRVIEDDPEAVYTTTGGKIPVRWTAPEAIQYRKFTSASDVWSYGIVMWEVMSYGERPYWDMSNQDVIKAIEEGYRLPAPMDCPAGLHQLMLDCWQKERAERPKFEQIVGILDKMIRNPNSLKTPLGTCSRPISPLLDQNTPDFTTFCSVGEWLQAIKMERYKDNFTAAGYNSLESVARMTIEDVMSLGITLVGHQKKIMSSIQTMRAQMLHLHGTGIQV
# Chain of MARK1 (human) (Q9P0L2 whole entry, looked up): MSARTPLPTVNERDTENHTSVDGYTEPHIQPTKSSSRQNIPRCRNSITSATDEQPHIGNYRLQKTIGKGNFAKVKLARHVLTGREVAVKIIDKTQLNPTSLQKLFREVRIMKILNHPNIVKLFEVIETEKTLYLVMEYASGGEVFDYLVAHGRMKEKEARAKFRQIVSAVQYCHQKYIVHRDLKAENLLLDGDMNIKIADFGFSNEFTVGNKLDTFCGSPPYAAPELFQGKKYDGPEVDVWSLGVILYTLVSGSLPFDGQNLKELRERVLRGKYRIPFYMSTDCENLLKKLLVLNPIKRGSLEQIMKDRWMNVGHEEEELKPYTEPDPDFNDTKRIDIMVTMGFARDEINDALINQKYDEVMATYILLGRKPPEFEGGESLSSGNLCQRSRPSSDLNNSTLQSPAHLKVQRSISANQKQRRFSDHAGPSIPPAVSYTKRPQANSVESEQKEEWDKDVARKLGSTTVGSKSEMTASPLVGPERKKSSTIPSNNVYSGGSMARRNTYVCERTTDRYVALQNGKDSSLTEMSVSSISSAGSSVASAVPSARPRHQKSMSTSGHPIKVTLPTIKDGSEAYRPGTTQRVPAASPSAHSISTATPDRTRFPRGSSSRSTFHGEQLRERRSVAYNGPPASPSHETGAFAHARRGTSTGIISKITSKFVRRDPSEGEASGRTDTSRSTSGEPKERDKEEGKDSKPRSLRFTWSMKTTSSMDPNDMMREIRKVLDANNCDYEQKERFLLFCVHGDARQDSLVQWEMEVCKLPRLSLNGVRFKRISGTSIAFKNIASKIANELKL
smiles,measurement,setting,value
Nc1nnc2[nH]c3ccccc3nc1-2,residual activity,[1],95.5%
same,residual activity,[2],94.3%
same,residual activity,[3],101%
same,residual activity,[4],95.3%
same,residual activity,[5],94.4%
same,residual activity,[6],98.3%
same,residual activity,[7],90%
same,residual activity,[8],98.8%
same,residual activity,[9],95.3%
same,residual activity,[10],85.5%
same,residual activity,[11],92.4%
same,residual activity,[12],94.8%
same,residual activity,[13],81.6%
same,residual activity,[14],96.1%
same,residual activity,[15],95.6%
same,residual activity,[16],96.4%
same,residual activity,[17],95.3%
same,residual activity,[18],104%
same,residual activity,[19],95.8%
same,residual activity,[20],99.4%
same,residual activity,[21],105%
same,residual activity,[22],99.2%
same,residual activity,[23],96.8%
same,residual activity,[24],95.7%
same,residual activity,[25],90.1%
same,residual activity,[26],96.3%
same,residual activity,[27],105%
same,residual activity,[28],97.8%
same,residual activity,[29],93.1%
same,residual activity,[30],92.1%
same,residual activity,[31],86.9%
same,residual activity,[32],88.5%
same,residual activity,[33],86.4%
same,residual activity,[34],94.9%
same,residual activity,[35],93% and 97.7%
same,residual activity,[36],94.6%
same,residual activity,[37],94.6%
same,residual activity,[38],85.7%
same,residual activity,[39],116%
same,residual activity,[40],98.1%
same,residual activity,[41],110%
CC(C)c1nn(-c2c(Cl)cccc2Cl)c2nc(Cc3ccc(OCCO)cc3)nc(O)c12,residual activity,[1],96.3%
same,residual activity,[2],94.7%
same,residual activity,[3],94.8%
same,residual activity,[5],85.1%
same,residual activity,[6],102%
same,residual activity,[7],104%
same,residual activity,[8],90.9%
same,residual activity,[9],7.71%
same,residual activity,[10],8.6%
same,residual activity,[11],86.8%
same,residual activity,[12],45.6%
same,residual activity,[13],22.7%
same,residual activity,[14],44%
same,residual activity,[15],95.7%
same,residual activity,[16],95.2%
same,residual activity,[17],97.9%
same,residual activity,[18],101%
same,residual activity,[42],106%
same,residual activity,[19],94.7%
same,residual activity,[20],95.6%
same,residual activity,[21],107%
same,residual activity,[22],97.3%
same,residual activity,[23],89.9%
same,residual activity,[24],93.3%
same,residual activity,[25],91%
same,residual activity,[26],94.4%
same,residual activity,[27],97.5%
same,residual activity,[28],96.3%
same,residual activity,[29],94%
same,residual activity,[30],90.5%
same,residual activity,[31],87%
same,residual activity,[32],96.7%
same,residual activity,[33],90.5%
same,residual activity,[34],103%
same,residual activity,[35],92.3% and 99%
same,residual activity,[36],103%
same,residual activity,[37],96.6%
same,residual activity,[38],47.7%
same,residual activity,[39],99.9%
same,residual activity,[40],98%
same,residual activity,[41],105%
CC(C)[C@H](CO)Nc1nc(Nc2cc(N)cc(Cl)c2)c2ncn(C(C)C)c2n1,residual activity,[1],21.3%
same,residual activity,[2],99.4%
same,residual activity,[3],83%
same,residual activity,[5],95.3%
same,residual activity,[6],103%
same,residual activity,[7],98.2%
same,residual activity,[8],33.2%
same,residual activity,[14],17.7%
same,residual activity,[15],13.4%
same,residual activity,[16],93.9%
same,residual activity,[17],80.2%
same,residual activity,[18],72.1%
same,residual activity,[42],79.3%
same,residual activity,[19],96.4%
same,residual activity,[20],88.4%
same,residual activity,[21],107%
same,residual activity,[22],100%
same,residual activity,[23],82.5%
same,residual activity,[24],87.5%
same,residual activity,[25],109%
same,residual activity,[26],92.3%
same,residual activity,[27],122%
same,residual activity,[28],80.2%
same,residual activity,[29],89%
same,residual activity,[30],4.42%
same,residual activity,[31],81.1%
same,residual activity,[32],97.3%
same,residual activity,[33],105%
same,residual activity,[34],94.2%
same,residual activity,[35],102% and 104%
same,residual activity,[36],59.5%
same,residual activity,[37],55.6%
same,residual activity,[38],60.3%
same,residual activity,[39],83.7%
same,residual activity,[40],103%
same,residual activity,[41],102%
